Reference: PMC6934184, “Selective DNA-PKcs inhibition extends the therapeutic index of localized radiotherapy and chemotherapy” (The Journal of Clinical Investigation, 2019)

Target: T1, INSRR (IRR) (Homo sapiens, UniProt P14616)
T1 construct: purchased Thermo Fisher Scientific (Life Technologies) SelectScreen
Assay: SelectScreen Z'LYTE
Type: biochemical
In short: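 Percent values come from Thermo SelectScreen profiling of NU5455, combining activity and binding assays. CSF1R was run in Z'LYTE format at Km app ATP, and CAMK1 in Adapta format with ATP listed at 10.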

T1 sequence (P14616 27-1297): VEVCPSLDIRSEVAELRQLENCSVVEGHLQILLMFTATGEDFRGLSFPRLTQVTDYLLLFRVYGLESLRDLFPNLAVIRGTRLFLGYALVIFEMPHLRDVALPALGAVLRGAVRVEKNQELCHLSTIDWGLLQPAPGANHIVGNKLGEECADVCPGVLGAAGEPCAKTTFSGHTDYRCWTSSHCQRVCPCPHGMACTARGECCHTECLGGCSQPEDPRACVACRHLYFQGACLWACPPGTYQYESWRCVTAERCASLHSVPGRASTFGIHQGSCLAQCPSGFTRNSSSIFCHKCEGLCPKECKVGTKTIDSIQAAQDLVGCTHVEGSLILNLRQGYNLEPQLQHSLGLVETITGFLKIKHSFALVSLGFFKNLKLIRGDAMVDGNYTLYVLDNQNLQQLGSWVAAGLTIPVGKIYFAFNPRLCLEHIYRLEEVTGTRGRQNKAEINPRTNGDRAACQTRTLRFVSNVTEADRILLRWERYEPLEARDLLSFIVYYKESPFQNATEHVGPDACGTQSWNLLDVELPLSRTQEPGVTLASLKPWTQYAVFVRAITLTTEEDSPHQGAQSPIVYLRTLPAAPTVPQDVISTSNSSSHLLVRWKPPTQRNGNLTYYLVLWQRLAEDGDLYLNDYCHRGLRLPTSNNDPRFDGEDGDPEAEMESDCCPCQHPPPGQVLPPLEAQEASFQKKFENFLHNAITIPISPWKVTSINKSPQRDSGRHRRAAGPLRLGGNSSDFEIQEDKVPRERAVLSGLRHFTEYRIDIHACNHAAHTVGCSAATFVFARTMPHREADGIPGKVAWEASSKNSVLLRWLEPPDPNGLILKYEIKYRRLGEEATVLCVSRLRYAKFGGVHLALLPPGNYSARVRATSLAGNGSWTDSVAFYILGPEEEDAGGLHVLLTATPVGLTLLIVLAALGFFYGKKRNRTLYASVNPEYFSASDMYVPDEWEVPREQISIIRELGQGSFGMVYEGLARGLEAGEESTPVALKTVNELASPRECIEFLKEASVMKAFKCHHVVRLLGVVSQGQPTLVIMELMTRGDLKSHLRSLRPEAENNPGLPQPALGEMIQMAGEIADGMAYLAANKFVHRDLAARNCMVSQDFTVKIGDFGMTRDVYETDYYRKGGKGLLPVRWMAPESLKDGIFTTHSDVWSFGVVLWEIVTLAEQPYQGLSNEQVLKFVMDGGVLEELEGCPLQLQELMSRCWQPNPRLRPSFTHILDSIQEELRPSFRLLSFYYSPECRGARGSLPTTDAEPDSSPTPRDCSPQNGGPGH

CN(C(=O)CN1CCOCC1)c1ccc2sc3c(-c4cccc5c(=O)cc(N6CC7CCC(C6)O7)oc45)cccc3c2c1 [NU5455]
inhibition at 1 µM: 14.1%
